pIC50: −log10 of the molar value. Like-named read-outs stand apart in the source and are kept apart here.
Target: T1, LCK (Homo sapiens, UniProt P06239)
T1 construct: LCK KD GST (225-509); GST
Assay: LCK-Homogeneous Time Resolved Fluorescent (HTRF) Kinase Assay
Type: biochemical
Description: LCK-Homogeneous Time Resolved Fluorescent (HTRF) Kinase Assay:
The LCK HTRF assay begins with LCK in the presence of ATP phosphorylating the biotinylated peptide Gastrin. The reaction incubates for 90 min. To quench the assay detection reagents are added which both stop the reaction by diluting out the enzyme and chelating the metals due to the presence of EDTA. Once the detection reagents are added the assay incubates for 30 min to allow for equilibration of the detection reagents.
Buffer conditions are as follows: 50 mM HEPES pH 7.5, 50 mM NaCl, 20 mM MgCl, 5 mM MnCl, 2 mM DTT, 0.05% BSA.
The assay is quenched and stopped with 160 μL of detection reagent. Detection reagents are as follows: Buffer made of 50 mM Tris, pH 7.5, 100 mM NaCl, 3 mM EDTA, 0.05% BSA, 0.1% Tween20.
The assay plate is read in either a Discovery or a RubyStar.

[1] = read-out: activity in the LCK-HTRF Kinase Assay

T1 sequence (P06239 225-509): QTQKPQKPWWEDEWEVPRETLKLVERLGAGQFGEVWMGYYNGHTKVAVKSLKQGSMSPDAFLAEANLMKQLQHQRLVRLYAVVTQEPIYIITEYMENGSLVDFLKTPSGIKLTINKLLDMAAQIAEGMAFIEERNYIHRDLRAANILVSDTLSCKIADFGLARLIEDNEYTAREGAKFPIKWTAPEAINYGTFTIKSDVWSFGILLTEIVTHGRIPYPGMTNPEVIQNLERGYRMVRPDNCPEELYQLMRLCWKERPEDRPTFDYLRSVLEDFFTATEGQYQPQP

Row | Compound | pIC50 [1] | pIC50
1 | Cc1cccc(C)c1-n1c(=O)c2cnc(Nc3ccc(OCCCN4CCCCC4)cc3)nc2n2c3ccccc3nc12 [No. 32, 6-(2,6-dimethylphenyl)-2-((4-((3-(1-piperidinyl)-propyl)oxy)phenyl)amino)pyrimido[5′,4′:5,6]-pyrimido[1,2-a]benzimidazol-5(6H)-one] |  | > 6.00
2 | Cc1cccc(C)c1-n1c(=O)c2cnc(Nc3ccc(OCCN4CCN(C)CC4)c(F)c3)nc2n2c3ccccc3nc12 [No. 38, 6-(2,6-dimethylphenyl)-2-((3-fluoro-4-((2-(4-methyl-1-piperazinyl)ethyl)oxy)phenyl)amino)-pyrimido[5′,4′:5,6]pyrimido[1,2-a]benzimidazol-5(6H)-one] |  | > 6.00
3 | Cc1cccc(C)c1-n1c(=O)c2cnc(Nc3cccc(OCCCN4CCN(C)CC4)c3)nc2n2c3ccccc3nc12 [No. 39, 6-(2,6-dimethylphenyl)-2-((3-((3-(4-methyl-1-piperazinyl)propyl)oxy)phenyl)amino)-pyrimido[5′,4′:5,6]pyrimido[1,2-a]benzimidazol-5(6H)-one] | > 6.00 | 
4 | Cc1cccc(C)c1-n1c(=O)c2cnc(Nc3ccc(N4CCN(C)CC4)c(Cl)c3)nc2n2c3ccccc3nc12 [No. 40, 2-((3-chloro-4-(4-methyl-1-piperazinyl)phenyl)-amino)-6-(2,6-dimethylphenyl)pyrimido[5′,4′:5,6]-pyrimido[1,2-a]benzimidazol-5(6H)-one] | > 6.00 | 
5 | Cc1cccc(C)c1-n1c(=O)c2cnc(Nc3ccc(N4CCN(C(C)C)CC4)c(Cl)c3)nc2n2c3ccccc3nc12 [No. 41, 2-((3-chloro-4-(4-(1-methylethyl)-1-piperazinyl)-phenyl)amino)-6-(2,6-dimethylphenyl)-pyrimido[5′,4′:5,6]pyrimido[1,2-a]benzimidazol-5(6H)-one] | > 6.00 | 
6 | Cc1cccc(C)c1-n1c(=O)c2cnc(Nc3ccc(N4CCN(CC5CCCCC5)CC4)cc3)nc2n2c3ccccc3nc12 [No. 42, 2-((4-(4-(cyclohexylmethyl)-1-piperazinyl)phenyl)-amino)-6-(2,6-dimethylphenyl)pyrimido[5′,4′:5,6]-pyrimido[1,2-a]benzimidazol-5(6H)-one] | > 6.00 | 
7 | COc1cc(Nc2ncc3c(=O)n(-c4c(C)cccc4C)c4nc5ccccc5n4c3n2)ccc1OCCNC(C)C [No. 43, 6-(2,6-dimethylphenyl)-2-((4-((2-((1-methylethyl)-amino)ethyl)oxy)-3-(methyloxy)phenyl)amino)-pyrimido[5′,4′:5,6]pyrimido[1,2-a]benzimidazol-5(6H)-one] | > 6.00 | 
8 | Cc1cccc(C)c1-n1c(=O)c2cnc(Nc3ccc(N4CCN(C(C)C)CC4)c(F)c3)nc2n2c3ccccc3nc12 [No. 44, 6-(2,6-dimethylphenyl)-2-((3-fluoro-4-(4-(1-methylethyl)-1-piperazinyl)phenyl)amino)-pyrimido[5′,4′:5,6]pyrimido[1,2-a]benzimidazol-5(6H)-one] | > 6.00 | 
9 | Cc1cccc(C)c1-n1c(=O)c2cnc(Nc3ccc(N4CCN(CCN(C)C)CC4)cc3)nc2n2c3ccccc3nc12 [No. 45, 2-((4-(4-(2-(dimethylamino)ethyl)-1-piperazinyl)-phenyl)amino)-6-(2,6-dimethylphenyl)-pyrimido[5′,4′:5,6]pyrimido[1,2-a]benzimidazol-5(6H)-one] | > 6.00 | 
10 | COc1cc(Nc2ncc3c(=O)n(-c4c(C)cccc4C)c4nc5ccccc5n4c3n2)ccc1N1CCN(C(C)C)CC1 [No. 46, 6-(2,6-dimethylphenyl)-2-((4-(4-(1-methylethyl)-1-piperazinyl)-3-(methyloxy)phenyl)amino)-pyrimido[5′,4′:5,6]pyrimido[1,2-a]benzimidazol-5(6H)-one] | > 6.00 | 
11 | Cc1cccc(C)c1-n1c(=O)c2cnc(Nc3ccc(OCCNC(C)C)c(Cl)c3)nc2n2c3ccccc3nc12 [No. 47, 2-((3-chloro-4-((2-((1-methylethyl)amino)ethyl)oxy)-phenyl)amino)-6-(2,6-dimethylphenyl)-pyrimido[5′,4′:5,6]pyrimido[1,2-a]benzimidazol-5(6H)-one] | > 6.00 | 
12 | Cc1cccc(C)c1-n1c(=O)c2cnc(Nc3cccc(N4CCN(C)CC4)c3)nc2n2c3ccccc3nc12 [No. 48, 6-(2,6-dimethylphenyl)-2-((3-(4-methyl-1-piperazinyl)phenyl)amino)pyrimido[5′,4′:5,6]-pyrimido[1,2-a]benzimidazol-5(6H)-one] | > 6.00 | 
13 | Cc1cccc(C)c1-n1c(=O)c2cnc(Nc3ccc(N4CCN(CCCN(C)C)CC4)cc3)nc2n2c3ccccc3nc12 [No. 49, 2-((4-(4-(3-(dimethylamino)propyl)-1-piperazinyl)-phenyl)amino)-6-(2,6-dimethylphenyl)-pyrimido[5′,4′:5,6]pyrimido[1,2-a]benzimidazol-5(6H)-one] | > 6.00 | 

Second part, the compound after the results:

Row | pIC50 [1] | pIC50 | Compound
14 | > 6.00 |  | Cc1cccc(C)c1-n1c(=O)c2cnc(Nc3ccc(OCCN4CCOCC4)cc3)nc2n2c3ccccc3nc12 [No. 29, 6-(2,6-dimethylphenyl)-2-((4-((2-(4-morpholinyl)-ethyl)oxy)phenyl)amino)pyrimido[5′,4′:5,6]-pyrimido[1,2-a]benzimidazol-5(6H)-one]
15 | > 6.00 |  | COc1cc(Nc2ncc3c(=O)n(-c4c(C)cccc4C)c4nc5ccccc5n4c3n2)cc(OC)c1OCCN1CCOCC1 [No. 30, 2-((3,5-bis(methyloxy)-4-((2-(4-morpholinyl)ethyl)-oxy)phenyl)amino)-6-(2,6-dimethylphenyl)-pyrimido[5′,4′:5,6]pyrimido[1,2-a]benzimidazol-5(6H)-one]
16 | > 6.00 |  | Cc1cccc(C)c1-n1c(=O)c2cnc(Nc3ccc(N4CCN(C(C)C)CC4)cc3)nc2n2c3ccccc3nc12 [No. 31, 6-(2,6-dimethylphenyl)-2-((4-(4-(1-methylethyl)-1-piperazinyl)phenyl)amino)pyrimido[5′,4′:5,6]-pyrimido[1,2-a]benzimidazol-5(6H)-one]
17 | > 6.00 |  | CNCCOc1ccc(Nc2ncc3c(=O)n(-c4c(C)cccc4C)c4nc5ccccc5n4c3n2)cc1 [No. 33, 6-(2,6-dimethylphenyl)-2-((4-((2-(methylamino)-ethyl)oxy)phenyl)amino)pyrimido[5′,4′:5,6]-pyrimido[1,2-a]benzimidazol-5(6H)-one]
18 | > 6.00 |  | Cc1cccc(C)c1-n1c(=O)c2cnc(Nc3ccc(OCCN4CCN(C)CC4)cc3)nc2n2c3ccccc3nc12 [No. 34, 6-(2,6-dimethylphenyl)-2-((4-((2-(4-methyl-1-piperazinyl)ethyl)oxy)phenyl)amino)-pyrimido[5′,4′:5,6]pyrimido[1,2-a]benzimidazol-5(6H)-one]
19 | > 6.00 |  | Cc1cccc(C)c1-n1c(=O)c2cnc(Nc3ccc(OCCN4CCCCC4)c(F)c3)nc2n2c3ccccc3nc12 [No. 35, 6-(2,6-dimethylphenyl)-2-((3-fluoro-4-((2-(1-piperidinyl)ethyl)oxy)phenyl)amino)-pyrimido[5′,4′:5,6]pyrimido[1,2-a]benzimidazol-5(6H)-one]
20 | > 6.00 |  | Cc1cccc(C)c1-n1c(=O)c2cnc(Nc3cccc(OCCCN4CCCCC4)c3)nc2n2c3ccccc3nc12 [No. 36, 6-(2,6-dimethylphenyl)-2-((3-((3-(1-piperidinyl)-propyl)oxy)phenyl)amino)pyrimido[5′,4′:5,6]-pyrimido[1,2-a]benzimidazol-5(6H)-one]
21 | > 6.00 |  | COc1cc(Nc2ncc3c(=O)n(-c4c(C)cccc4C)c4nc5ccccc5n4c3n2)ccc1N1CCNCC1 [No. 37, 6-(2,6-dimethylphenyl)-2-((3-(methyloxy)-4-(1-piperazinyl)phenyl)amino)pyrimido[5′,4′:5,6]-pyrimido[1,2-a]benzimidazol-5(6H)-one]

Reference: patent US20050070554A1, “Substituted heterocyclic compounds and methods of use” (Amgen Inc., priority 2003, published 2005)
